# From paper PMC10424185, “C-2 Thiophenyl Tryptophan Trimers Inhibit Cellular Entry of SARS-CoV-2 through Interaction with the Viral Spike (S) Protein” (Journal of Medicinal Chemistry, 2023)
# “Also recorded” adds a separate entry of the source. Read-outs that look alike come from different tables or passages of the source.
# Experiments:
# [1] = test system: VSV-S (pseudotyped VSV carrying the S protein of Wuhan-Hu-1 SARS-CoV-2); test: microbe, parasite or virus in culture; type: cell-based
# in vitro [2] = details: human
# [3] = test system: VSV-S (pseudotyped VSV carrying the S protein of Wuhan-Hu-1 SARS-CoV-2); test: microbe, parasite or virus in culture; type: cell-based; details: read-out: IC50 (concentration at which virus infection is reduced by 50%), VSV-S in A549-ACE2-TMPRSS2 cells
# in vitro [4] = details: African green monkey
# SARS-CoV-2 RBD = SARS-CoV-2 RBD (Severe acute respiratory syndrome coronavirus 2, UniProt P0DTC2); type: binding
# VSV-SWuhan-Hu-1 = test: microbe, parasite or virus in culture; type: cell-based, SARS-CoV-2; details: Vesicular stomatitis virus, VeroE6/TMPRSS2, read-out: IC50 ± SD, pseudotyped VSV carrying S of Wuhan-Hu-1
# [5] = test system: VSV-SOmicron (S protein of SARS-CoV-2 Omicron BA.1); test: organism not typed; type: cell-based
# [6] = biological target: binding of human ACE2 catalytic domain to RBD (Severe acute respiratory syndrome coronavirus 2, UniProt P0DTC2); design: species or system SARS-CoV-2 / human
# [7] = Vesicular stomatitis virus, Vero C1008, read-out: IC50 (concentration at which virus infection is reduced by 50%), VSV-S in Vero E6 cells
# [8] = VeroE6/TMPRSS2, read-out: IC50 ± SD, pseudotyped VSV carrying S of Omicron BA.1
# [9] = read-out: IC50 (concentration at which virus infection is reduced by 50%), VSV-S in Vero E6 cells
smiles,measurement,setting,value
CCCCCCCCCC(=O)NCC(=O)NC(CCC(=O)NC(Cc1c(Sc2ccc([N+](=O)[O-])cc2)[nH]c2ccccc12)C(=O)O)(CCC(=O)NC(Cc1c(Sc2ccc([N+](=O)[O-])cc2)[nH]c2ccccc12)C(=O)O)CCC(=O)NC(Cc1c(Sc2ccc([N+](=O)[O-])cc2)[nH]c2ccccc12)C(=O)O (stereo not shown) [Compound 58],IC50,[1]; [7],21 ± 8.7 µM
same,CC50,in vitro [2],> 100 µM
same,IC50,[3]; Vesicular stomatitis virus,9.8 ± 4.3 µM
same,CC50,in vitro [4],> 100 µM
NCC(=O)NC(CCC(=O)NC(Cc1c(C(=O)c2ccc([N+](=O)[O-])cc2)[nH]c2ccccc12)C(=O)O)(CCC(=O)NC(Cc1c(C(=O)c2ccc([N+](=O)[O-])cc2)[nH]c2ccccc12)C(=O)O)CCC(=O)NC(Cc1c(C(=O)c2ccc([N+](=O)[O-])cc2)[nH]c2ccccc12)C(=O)O (stereo not shown) [Compound 50],antiviral activity in the VSV-S assay (in words),[1],antiviral activity is also lost
same,IC50,[1]; [7],> 50 µM
NCC(=O)NC(CCC(=O)NC(Cc1c(Sc2ccc(C(F)(F)F)cc2)[nH]c2ccccc12)C(=O)O)(CCC(=O)NC(Cc1c(Sc2ccc(C(F)(F)F)cc2)[nH]c2ccccc12)C(=O)O)CCC(=O)NC(Cc1c(Sc2ccc(C(F)(F)F)cc2)[nH]c2ccccc12)C(=O)O (stereo not shown) [Compound 38],IC50,[1]; [7],27.6 ± 12.6 µM
same,CC50,in vitro [2],> 100 µM
same,IC50,[3]; Vesicular stomatitis virus,11.6 ± 4.8 µM
same,effect on thermofluor fluorescence profile / thermal stability of RBD (in words),SARS-CoV-2 RBD,shift of the curve toward lower temperatures
same,CC50,in vitro [4],> 100 µM
NCCOCCOCCC(=O)NCC(=O)NC(CCC(=O)NC(Cc1c(Sc2ccc([N+](=O)[O-])cc2)[nH]c2ccccc12)C(=O)O)(CCC(=O)NC(Cc1c(Sc2ccc([N+](=O)[O-])cc2)[nH]c2ccccc12)C(=O)O)CCC(=O)NC(Cc1c(Sc2ccc([N+](=O)[O-])cc2)[nH]c2ccccc12)C(=O)O (stereo not shown) [Compound 63],IC50,[1]; [7],0.7 ± 0.9 µM
same,CC50,in vitro [2],> 100 µM
same,IC50,VSV-SWuhan-Hu-1,0.01 µM
same,IC50,[3]; Vesicular stomatitis virus,1.4 ± 1.1 µM
same,CC50,in vitro [4],> 100 µM
same,IC50,[5]; [8],25.4 µM
CCCCCC(=O)NCC(=O)NC(CCC(=O)NC(Cc1c(Sc2ccc([N+](=O)[O-])cc2)[nH]c2ccccc12)C(=O)O)(CCC(=O)NC(Cc1c(Sc2ccc([N+](=O)[O-])cc2)[nH]c2ccccc12)C(=O)O)CCC(=O)NC(Cc1c(Sc2ccc([N+](=O)[O-])cc2)[nH]c2ccccc12)C(=O)O (stereo not shown) [Compound 56],IC50,[1]; [7],18.9 ± 6.8 µM
same,CC50,in vitro [2],> 100 µM
same,IC50,[3]; Vesicular stomatitis virus,8.3 ± 1.1 µM
same,CC50,in vitro [4],> 100 µM
O=C(CCC(CCC(=O)NC(Cc1c(Sc2ccc([N+](=O)[O-])cc2)[nH]c2ccccc12)C(=O)O)(CCC(=O)NC(Cc1c(Sc2ccc([N+](=O)[O-])cc2)[nH]c2ccccc12)C(=O)O)[N+](=O)[O-])NC(Cc1c(Sc2ccc([N+](=O)[O-])cc2)[nH]c2ccccc12)C(=O)O (stereo not shown) [Compound 3],primary HTS screening result (in words),[1],effective
same,IC50,[1]; [7],32.9 ± 4.48 µM
same,IC50,[1]; [9],32.9 ± 4.5 µM
same,CC50,in vitro [4],> 100 µM
CCCCCCCCCCCC(=O)NCC(=O)NC(CCC(=O)NC(Cc1c(Sc2ccc([N+](=O)[O-])cc2)[nH]c2ccccc12)C(=O)O)(CCC(=O)NC(Cc1c(Sc2ccc([N+](=O)[O-])cc2)[nH]c2ccccc12)C(=O)O)CCC(=O)NC(Cc1c(Sc2ccc([N+](=O)[O-])cc2)[nH]c2ccccc12)C(=O)O (stereo not shown) [Compound 59],IC50,[1]; [7],30.3 ± 5.3 µM
same,CC50,in vitro [2],> 100 µM
same,IC50,[3]; Vesicular stomatitis virus,44.4 ± 23.4 µM
same,CC50,in vitro [4],> 100 µM
NCC(=O)NC(CCC(=O)NC(Cc1c(Sc2ccc(F)cc2)[nH]c2ccccc12)C(=O)O)(CCC(=O)NC(Cc1c(Sc2ccc(F)cc2)[nH]c2ccccc12)C(=O)O)CCC(=O)NC(Cc1c(Sc2ccc(F)cc2)[nH]c2ccccc12)C(=O)O (stereo not shown) [Compound 40],IC50,[1]; [7],33 ± 1.3 µM
same,CC50,in vitro [2],> 100 µM
same,IC50,[3]; Vesicular stomatitis virus,46.9 ± 17.5 µM
same,CC50,in vitro [4],> 100 µM
NCC(=O)NC(CCC(=O)NC(Cc1c(-c2ccc([N+](=O)[O-])cc2)[nH]c2ccccc12)C(=O)O)(CCC(=O)NC(Cc1c(-c2ccc([N+](=O)[O-])cc2)[nH]c2ccccc12)C(=O)O)CCC(=O)NC(Cc1c(-c2ccc([N+](=O)[O-])cc2)[nH]c2ccccc12)C(=O)O (stereo not shown) [Compound 46],antiviral activity in the VSV-S assay (in words),[1],antiviral activity is also lost
same,IC50,[1]; [7],> 50 µM
N#Cc1ccc(Sc2[nH]c3ccccc3c2CC(NC(=O)CCC(CCC(=O)NC(Cc2c(Sc3ccc(C#N)cc3)[nH]c3ccccc23)C(=O)O)(CCC(=O)NC(Cc2c(Sc3ccc(C#N)cc3)[nH]c3ccccc23)C(=O)O)NC(=O)CN)C(=O)O)cc1 (stereo not shown) [Compound 39],IC50,[1]; [7],33.6 ± 7.2 µM
same,CC50,in vitro [2],> 100 µM
same,IC50,[3]; Vesicular stomatitis virus,34.9 ± 8.7 µM
same,CC50,in vitro [4],> 100 µM
NCC(=O)NC(CCC(=O)NC(Cc1c(Sc2cccc([N+](=O)[O-])c2)[nH]c2ccccc12)C(=O)O)(CCC(=O)NC(Cc1c(Sc2cccc([N+](=O)[O-])c2)[nH]c2ccccc12)C(=O)O)CCC(=O)NC(Cc1c(Sc2cccc([N+](=O)[O-])c2)[nH]c2ccccc12)C(=O)O (stereo not shown) [Compound 37],IC50,[1]; [7],37.1 ± 15.9 µM
same,CC50,in vitro [2],> 100 µM
same,IC50,[3]; Vesicular stomatitis virus,8.6 ± 4.7 µM
same,CC50,in vitro [4],> 100 µM
O=C(CCOCC(COCCC(=O)NC(Cc1c(Sc2ccc([N+](=O)[O-])cc2)[nH]c2ccccc12)C(=O)O)(COCCC(=O)NC(Cc1c(Sc2ccc([N+](=O)[O-])cc2)[nH]c2ccccc12)C(=O)O)COCCC(=O)NC(Cc1c(Sc2ccc([N+](=O)[O-])cc2)[nH]c2ccccc12)C(=O)O)NC(Cc1c(Sc2ccc([N+](=O)[O-])cc2)[nH]c2ccccc12)C(=O)O (stereo not shown) [Compound 1],primary HTS screening result (in words),[1],significant antiviral activity in the absence of cytotoxicity
same,IC50,[1]; [7],21.4 ± 9.45 µM
same,IC50,[1]; [9],21.4 ± 9.5 µM
same,CC50,in vitro [2],> 100 µM
same,IC50,[3]; Vesicular stomatitis virus,18.5 ± 3.5 µM
same,CC50,in vitro [4],> 100 µM
O=C(CCOCCOCCOCCOCCC(=O)NCC(=O)NC(CCC(=O)NC(Cc1c(Sc2ccc([N+](=O)[O-])cc2)[nH]c2ccccc12)C(=O)O)(CCC(=O)NC(Cc1c(Sc2ccc([N+](=O)[O-])cc2)[nH]c2ccccc12)C(=O)O)CCC(=O)NC(Cc1c(Sc2ccc([N+](=O)[O-])cc2)[nH]c2ccccc12)C(=O)O)NCC(=O)NC(CCC(=O)NC(Cc1c(Sc2ccc([N+](=O)[O-])cc2)[nH]c2ccccc12)C(=O)O)(CCC(=O)NC(Cc1c(Sc2ccc([N+](=O)[O-])cc2)[nH]c2ccccc12)C(=O)O)CCC(=O)NC(Cc1c(Sc2ccc([N+](=O)[O-])cc2)[nH]c2ccccc12)C(=O)O (stereo not shown) [Compound 65],IC50,[1]; [7],0.28 ± 0.23 µM
same,IC50,[1]; [9],0.3 ± 0.2 µM
same,CC50,in vitro [2],> 100 µM
same,IC50,VSV-SWuhan-Hu-1,0.28 ± 0.23 µM
same,IC50,[3]; Vesicular stomatitis virus,15.8 ± 1.5 µM
same,increase of ACE2 concentrations needed for binding to the RBD,[6],~10 fold
same,effect on thermofluor fluorescence profile / thermal stability of RBD (in words),SARS-CoV-2 RBD,shift of the curve toward lower temperatures
same,CC50,in vitro [4],> 100 µM
same,IC50,[5]; [8],6.24 ± 0.16 µM
same,IC50,"[5]; read-out: IC50 ± SD, pseudotyped VSV carrying S of Omicron BA.1",< 10 µM
CCCCCCCC(=O)NCC(=O)NC(CCC(=O)NC(Cc1c(Sc2ccc([N+](=O)[O-])cc2)[nH]c2ccccc12)C(=O)O)(CCC(=O)NC(Cc1c(Sc2ccc([N+](=O)[O-])cc2)[nH]c2ccccc12)C(=O)O)CCC(=O)NC(Cc1c(Sc2ccc([N+](=O)[O-])cc2)[nH]c2ccccc12)C(=O)O (stereo not shown) [Compound 57],IC50,[1]; [7],23.5 ± 3.8 µM
same,CC50,in vitro [2],> 100 µM
same,IC50,[3]; Vesicular stomatitis virus,11.1 ± 5 µM
same,effect on thermofluor fluorescence profile / thermal stability of RBD (in words),SARS-CoV-2 RBD,shift of the curve toward lower temperatures
same,CC50,in vitro [4],> 100 µM
CC(=O)c1ccc(Sc2[nH]c3ccccc3c2CC(NC(=O)CCC(CCC(=O)NC(Cc2c(Sc3ccc(C(C)=O)cc3)[nH]c3ccccc23)C(=O)O)(CCC(=O)NC(Cc2c(Sc3ccc(C(C)=O)cc3)[nH]c3ccccc23)C(=O)O)NC(=O)CN)C(=O)O)cc1 (stereo not shown) [Compound 41],IC50,[1]; [7],~2 µM
same,IC50,[1]; [9],3 ± 1.9 µM
same,CC50,in vitro [2],> 100 µM
same,IC50,[3]; Vesicular stomatitis virus,~2 µM
same,IC50,[3],2.3 ± 1.7 µM
same,effect on thermofluor fluorescence profile / thermal stability of RBD (in words),SARS-CoV-2 RBD,shift of the curve toward lower temperatures; also recorded: thermally destabilized the RBD
same,CC50,in vitro [4],> 100 µM
O=C(O)CCCCC(=O)NCC(=O)NC(CCC(=O)NC(Cc1c(Sc2ccc([N+](=O)[O-])cc2)[nH]c2ccccc12)C(=O)O)(CCC(=O)NC(Cc1c(Sc2ccc([N+](=O)[O-])cc2)[nH]c2ccccc12)C(=O)O)CCC(=O)NC(Cc1c(Sc2ccc([N+](=O)[O-])cc2)[nH]c2ccccc12)C(=O)O (stereo not shown) [Compound 61],IC50,[1]; [7],~2 µM
same,IC50,[1]; [9],2.1 ± 1.5 µM
same,CC50,in vitro [2],> 100 µM
same,IC50,[3]; Vesicular stomatitis virus,~2 µM
same,IC50,[3],2.3 ± 0.8 µM
same,effect on thermofluor fluorescence profile / thermal stability of RBD (in words),SARS-CoV-2 RBD,shift of the curve toward lower temperatures
same,CC50,in vitro [4],> 100 µM
NCC(=O)NC(CCC(=O)NC(Cc1c(Sc2ccccc2[N+](=O)[O-])[nH]c2ccccc12)C(=O)O)(CCC(=O)NC(Cc1c(Sc2ccccc2[N+](=O)[O-])[nH]c2ccccc12)C(=O)O)CCC(=O)NC(Cc1c(Sc2ccccc2[N+](=O)[O-])[nH]c2ccccc12)C(=O)O (stereo not shown) [Compound 36],IC50,[1]; [7],> 100 µM
